EC50 and IC50 data for 32 molecules are collected here from US11440907B1 (Merck Patent GmbH, priority 2018, dated 2022).

The EC50 is the concentration needed to bring the measured effect to its halfway point. As a reminder, the IC50 is the point on the concentration scale where inhibition reaches its midpoint.

Holding throughout (format): cell-based
The test system of assay [1] is intracellular calcium flux in Colo-205 cells. Put plainly: Calcium flux assay (FLIPR Calcium 5 Assay Kit, FLIPR3). The settings on record: Homo sapiens, 0.6 h, calcium flux measured over 36 minutes, read-out: Colo 205 Calcium Flux assay 384w Boston Ca assay FLIPR3 Colo EC50. The method, then:
Compounds described herein induced ER stress by causing intracellular calcium flux. Calcium flux was measured in Colo-205 cells using the FLIPR® Calcium 5 Assay Kit according to manufacturer's protocol (Molecular Devices, Cat. #R8186) on a FLIPR3 system (Molecular Devices). Calcium flux is measured over 36 minutes. The Colo-205 calcium flux assay data are summarized in Table 3: A<0.6 μM; 0.6 μM≤B<2.0 μM; 2.0 μM≤C<10.0 μM; D≥10.0 μM.
On the technique in general: Calcium flux is commonly read through the fluorescence of an indicator in the cells.

For assay [2], the system named is XBP1(u)-luciferase splicing reporter in HepG2 hepatoma cells. The assay is described as follows: HepG2 XBP1 reporter assay (XBP1(u)-Luc). The note with it: Homo sapiens, 6 hours after compound addition, Table 3, read-out: XBP1-luc HepG2 1 EC50.
Assay [3] has as its system β-catenin-TCF-mediated reporter transcription activity in Colo 205 cells. The assay is described as follows: Colo 205 reporter assay (TCF/LEF promoter-driven firefly luciferase). The note with it: Homo sapiens; Colo 205 TCF/LEF luciferase reporter, 5 hours after compound addition, 384 well; read-out: Colo205 IC50. On the technique in general: A reporter such as luciferase makes a cellular process visible.

Turning to `CC(=O)Nc1ccc([C@H]2COCCCN2c2cc(C)nc(N)n2)c(Cl)c1` (single isomer, unassigned) [I-162], the concentration for a half-maximal effect (EC50) in assay [1] and in assay [2] was less than 600 nM each time. For the same molecule, in assay [3], the IC50 is less than 300 nM.

Turning to `COCC(=O)Nc1ccc(C2COCCCN2c2cc(C)nc(N)n2)c(Cl)c1` (racemic) [I-192, (+/−)-N-[4-[4-(2-amino-6-methyl-pyrimidin-4-yl)-1,4-oxazepan-3-yl]-3-chloro-phenyl]-2-methoxy-acetamide], the EC50 in assay [1] and in assay [2] was less than 600 nM throughout. For the same molecule, the concentration for half-maximal inhibition (IC50) in assay [3] lay in the range of 300 to 1000 nM.

With `C=C(C)c1ccc(C2COCCCN2c2cc(C)nc(N)n2)c(Cl)c1` (stereo not drawn) [I-299], the EC50 in assay [1] is less than 600 nM; in assay [2] it was 600 to 2000 nM. Also, in assay [3], the IC50 lay in the range of 300 to 1000 nM.

With `CC(=O)Nc1ccc(Cl)c([C@@H]2COCCCN2c2cc(C)nc(N)n2)c1` [I-92], the EC50 in assay [1] and in assay [2] was less than 600 nM in each case. Besides, the IC50 in assay [3] is less than 300 nM.

In the case of `COc1ccc(F)cc1[C@H]1COCCCN1c1cc(C)nc(N)n1` [I-288], the EC50 in assay [1] was less than 600 nM; in assay [2] it was 2000 to 5000 nM. Also, the IC50 in assay [3] was less than 300 nM.

Turning to `Cc1cc(N2CCCOCC2c2cc(NC(=O)CC3COC3)ccc2Cl)nc(N)n1` (racemic) [I-185, (+/−)-N-[3-[4-(2-amino-6-methyl-pyrimidin-4-yl)-1,4-oxazepan-3-yl]-4-chloro-phenyl]-2-(oxetan-3-yl)acetamide], the results for the EC50 in assay [1] and in assay [2] were less than 600 nM and 2000 to 5000 nM, respectively. Also, the IC50 in assay [3] is 300 to 1000 nM.

Regarding `Cc1cc(N2CCCOCC2c2cc(Br)ccc2Cl)nc(N)n1` (stereo not drawn) [I-295], the figures for the EC50 in assay [1] and in assay [2] were less than 600 nM and 600 to 2000 nM, respectively. The IC50 in assay [3] was in the range of 300 to 1000 nM.

Take `COC1CCN(c2ccc([C@H]3COCCCN3c3cc(C)nc(N)n3)c(Cl)c2)C1` (stereo partly drawn) [I-218, 4-[(3S)-3-[2-chloro-4-(3-methoxypyrrolidin-1-yl)phenyl]-1,4-oxazepan-4-yl]-6-methyl-pyrimidin-2-amine]: the EC50 in assay [1] and in assay [2] was less than 600 nM in each case. The IC50 in assay [3] was less than 300 nM.

In the case of `Cc1cc(N2CCCOC[C@@H]2c2ccc(S(C)(=O)=O)cc2Cl)nc(N)n1` (single isomer, unassigned) [I-68], the EC50 in assay [1] and in assay [2] was less than 600 nM each time. For the same molecule, in assay [3], the half-maximal inhibitory concentration (IC50) was in the range of 300 to 1000 nM.

In the case of `Cc1cc(N2CCCOC[C@@H]2c2ccc(N3CC4COCC4C3)cc2Cl)nc(N)n1` (stereo partly drawn) [I-220, 4-[(3S)-3-[4-(1,3,3a,4,6,6a-hexahydrofuro[3,4-c]pyrrol-5-yl)-2-chloro-phenyl]-1,4-oxazepan-4-yl]-6-methyl-pyrimidin-2-amine], the EC50 in assay [1] and in assay [2] was less than 600 nM in each case. Besides, the IC50 in assay [3] was less than 300 nM.

For `COCc1ccc(C2COCCCN2c2cc(C)nc(N)n2)c(Cl)c1` (racemic) [I-205, (+/−)-4-[3-[2-chloro-4-(methoxymethyl)phenyl]-1,4-oxazepan-4-yl]-6-methyl-pyrimidin-2-amine], the EC50 in assay [1] and in assay [2] was less than 600 nM each time. Also, in assay [3], the IC50 was in the range of 300 to 1000 nM.

With `COc1cc(Cl)ccc1C1CCCCCN1c1cc(C)nc(N)n1` (stereo not drawn) [I-20, 4-(2-(4-chloro-2-methoxyphenyl)azepan-1-yl)-6-methylpyrimidin-2-amine], the EC50 in assay [1] and in assay [2] was 600 to 2000 nM in each case. For the same molecule, the IC50 in assay [3] was in the range of 300 to 1000 nM.

For `Cc1cc(N2CCCOCC2c2cc(C(=O)NC3CC3)ccc2Cl)nc(N)n1` (racemic) [I-172, (+/−)-3-(4-(2-amino-6-methylpyrimidin-4-yl)-1,4-oxazepan-3-yl)-4-chloro-N-cyclopropylbenzamide], the EC50 in assay [1] was less than 600 nM; in assay [2], 2000 to 5000 nM. For the same molecule, the IC50 in assay [3] is 300 to 1000 nM.

For `Cc1cc(N2CCCOC[C@@H]2c2ccc(NC3COC3)cc2Cl)nc(N)n1` [I-215, 4-[(3S)-3-[2-chloro-4-(oxetan-3-ylamino)phenyl]-1,4-oxazepan-4-yl]-6-methyl-pyrimidin-2-amine], the EC50 in assay [1] and in assay [2] was less than 600 nM in each case. For the same molecule, the concentration for half-maximal inhibition (IC50) in assay [3] was less than 300 nM.

Take `Cc1cc(N2CCCOC[C@@H]2c2cc3nccn3cc2Cl)nc(N)n1` (single isomer, unassigned) [I-221, 4-[3-(6-chloroimidazo[1,2-a]pyridin-7-yl)-1,4-oxazepan-4-yl]-6-methyl-pyrimidin-2-amine]: the EC50 in assay [1] and in assay [2] was less than 600 nM throughout. Further, in assay [3], the IC50 was less than 300 nM.

For `CCNC(=O)c1ccc(Cl)c(C2COCCCN2c2cc(C)nc(N)n2)c1` (racemic) [I-173, (+/−)-3-[4-(2-amino-6-methyl-pyrimidin-4-yl)-1,4-oxazepan-3-yl]-4-chloro-N-ethyl-benzamide], the results for the EC50 in assay [1] and in assay [2] were less than 600 nM and 600 to 2000 nM, respectively. Further, the IC50 in assay [3] fell in the range of 300 to 1000 nM.

Take `CCS(=O)(=O)c1ccc(C2COCCCN2c2cc(C)nc(N)n2)c(Cl)c1` (stereo not drawn) [I-297]: the EC50 in assay [1] and in assay [2] was less than 600 nM throughout. Besides, the IC50 in assay [3] is 300 to 1000 nM.

As to `CCC(=O)Nc1ccc(C2COCCCN2c2cc(C)nc(N)n2)c(Cl)c1` (stereo not drawn) [I-306], the EC50 in assay [1] and in assay [2] was less than 600 nM in each case. For the same molecule, the IC50 in assay [3] lay in the range of 300 to 1000 nM.

For `Cc1cc(N2CCCOCC2c2ccc(S(=O)(=O)C3CCC3)cc2Cl)nc(N)n1` (stereo not drawn) [I-222, 4-(3-(2-chloro-4-(cyclobutylsulfonyl)phenyl)-1,4-oxazepan-4-yl)-6-methylpyrimidin-2-amine], the EC50 in assay [1] is less than 600 nM; in assay [2], 600 to 2000 nM. Further, the concentration for half-maximal inhibition (IC50) in assay [3] lay in the range of 300 to 1000 nM.

Regarding `CCS(=O)(=O)c1ccc([C@H]2COCCCN2c2cc(C)nc(N)n2)c(Cl)c1` [I-183, 4-(3-(2-chloro-4-(ethylsulfonyl)phenyl)-1,4-oxazepan-4-yl)-6-methylpyrimidin-2-amine], the EC50 in assay [1] and in assay [2] was less than 600 nM each time. In addition, the IC50 in assay [3] lay in the range of 300 to 1000 nM.

Turning to `Cc1cc(N2CCCOCC2c2ccc(N(C)C3COC3)cc2Cl)nc(N)n1` (racemic) [I-186, (+/−)-4-[3-[2-chloro-4-[methyl(oxetan-3-yl)amino]phenyl]-1,4-oxazepan-4-yl]-6-methyl-pyrimidin-2-amine], the concentration giving a half-maximal response (EC50) in assay [1] and in assay [2] was less than 600 nM each time. The IC50 in assay [3] is less than 300 nM.

Consider `Cc1cc(N2CCCOCC2c2ccc(N3CCCS3(=O)=O)cc2Cl)nc(N)n1` (racemic) [I-193, (+/−)-4-[3-[2-chloro-4-(1,1-dioxo-1,2-thiazolidin-2-yl)phenyl]-1,4-oxazepan-4-yl]-6-methyl-pyrimidin-2-amine], for which the EC50 in assay [1] and in assay [2] was less than 600 nM throughout. Further, the IC50 in assay [3] is less than 300 nM.

Consider `CNC(=O)c1ccc(Cl)c([C@@H]2COCCCN2c2cc(C)nc(N)n2)c1` [I-181], for which the half-maximal effective concentration (EC50) in assay [1] and in assay [2] was less than 600 nM throughout. In addition, the IC50 in assay [3] is less than 300 nM.

In the case of `Cc1cc(N2CCCOCC2c2cc(NC(=O)C(F)(F)F)ccc2Cl)nc(N)n1` (single isomer, unassigned) [I-177, N-(3-(4-(2-amino-6-methylpyrimidin-4-yl)-1,4-oxazepan-3-yl)-4-chlorophenyl)-2,2,2-trifluoroacetamide], the EC50 in assay [1] and in assay [2] was less than 600 nM each time. Also, in assay [3], the 50% inhibitory concentration (IC50) was less than 300 nM.

With `Cc1cc(N2CCCOC[C@@H]2c2ccc(N3CCC4(CCOC4)C3)cc2Cl)nc(N)n1` (stereo partly drawn) [I-219, 4-[(3S)-3-[2-chloro-4-(2-oxa-7-azaspiro[4.4]nonan-7-yl)phenyl]-1,4-oxazepan-4-yl]-6-methyl-pyrimidin-2-amine], the EC50 in assay [1] and in assay [2] was less than 600 nM throughout. In assay [3], the IC50 lay within 300 to 1000 nM.

As to `Cc1cc(N2CCCOCC2c2ccc(NC(=O)C3(O)CC3)cc2Cl)nc(N)n1` (stereo not drawn) [I-303], the EC50 in assay [1] and in assay [2] was less than 600 nM throughout. In assay [3], the IC50 was in the range of 300 to 1000 nM.

For `CCc1cc(N2CCCCCC2c2ccccc2Cl)nc(N)n1` (racemic) [I-17, (+/−)-4-(2-(2-chlorophenyl)azepan-1-yl)-6-ethylpyrimidin-2-amine], the EC50 in assay [1] was 600 to 2000 nM; in assay [2], less than 600 nM. In assay [3], the IC50 was in the range of 300 to 1000 nM.

On to `CCC(=O)Nc1ccc([C@H]2COCCCN2c2cc(C)nc(N)n2)c(Cl)c1` (single isomer, unassigned) [I-204], for which the EC50 in assay [1] and in assay [2] was less than 600 nM throughout. Also, the IC50 in assay [3] was less than 300 nM.

As for `Cc1cc(N2CCCOC[C@H]2c2ccc(C(N)=O)cc2Cl)nc(N)n1` [I-188], the EC50 in assay [1] is less than 600 nM; in assay [2] it was 600 to 2000 nM. Moreover, the IC50 in assay [3] is less than 300 nM.

Consider `Cc1cc(N2CCCOCC2c2cc(-n3cccc3)ccc2Cl)nc(N)n1` (stereo not drawn) [I-300], for which the results for the EC50 in assay [1] and in assay [2] were less than 600 nM and 600 to 2000 nM, respectively. The IC50 in assay [3] lay in the range of 300 to 1000 nM.

Regarding `Cc1cc(N2CCCOC[C@H]2c2ccc(NS(C)(=O)=O)cc2Cl)nc(N)n1` (single isomer, unassigned) [I-179, N-[4-[4-(2-amino-6-methyl-pyrimidin-4-yl)-1,4-oxazepan-3-yl]-3-chloro-phenyl]methanesulfonamide], the EC50 in assay [1] and in assay [2] was less than 600 nM in each case. For the same molecule, in assay [3], the IC50 is less than 300 nM.

As to `CCNC(=O)c1ccc(C2COCCCN2c2cc(C)nc(N)n2)c(Cl)c1` (racemic) [I-171, (+/−)-4-[4-(2-amino-6-methyl-pyrimidin-4-yl)-1,4-oxazepan-3-yl]-3-chloro-N-ethyl-benzamide], the figures for the EC50 in assay [1] and in assay [2] were less than 600 nM and 600 to 2000 nM, respectively. Also, in assay [3], the IC50 was in the range of 1000 to 5000 nM.
